For assay [1], the target named is T1, PD-L1 (Homo sapiens, UniProt Q9NZQ7).
T1 construct: determine if they can specifically dimerize the extracellular domains of PD-L1
As to the kind of experiment: PD-L1/PD-L1 dimerization biochemical protein-protein interaction assay (ALPHA). The format is binding. The settings on record: compound-induced PD-L1 dimerization, head prints '1 nM' (0.5 nM His-tagged PD-L1 and 0.5 nM FLAG-tagged PD-L1), read-out: AC50 PDL1 Dimer Alpha 1 nM. Put shortly:
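ALPHA proximity assay of compound-induced dimerization of 0.5 nM His-tagged and 0.5 nM FLAG-tagged PD-L1 extracellular domains in Hepes pH 7.4 buffer, 2 h at 25 °C. Anti-His acceptor then anti-FLAG donor beads, 60 min each; AC50 from four-parameter fit.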

Assay [2] has as its target T2, PD-1/PD-L1 interaction (Homo sapiens, UniProt Q9NZQ7).
T2 construct: expressed in transfected cells; host or cells: CHO cells (aAPC-PD-L1) co-cultured with Jurkat cells overexpressing PD-1 and an NFAT-luciferase reporter
As to the kind of experiment: PD-1/PD-L1 NFAT reporter co-culture assay. The note with it: Jurkat PD-1 NFAT-luciferase cells co-cultured with aAPC-PD-L1 CHO cells, 6 hrs at 37° C.; read-out: EC50 NFAT Luciferase. The format is cell-based. Put shortly:
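Compounds are scored by restoration of NFAT-luciferase signal in PD-1-expressing Jurkat cells cultured 6 h at 37 °C on CHO cells presenting anti-CD3 and PD-L1; EC50 values derive from four-parameter curve fitting.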

Assay [3] has as its target PD-1/PD-L1 (Homo sapiens, UniProt Q9NZQ7). The assay is described as follows: PD-1/PD-L1 biochemical protein-protein interaction assay (ALPHA). The format is binding. The note with it: 0.3 nM His tagged PD-L1, 2.5 nM biotinylated Fc-PD-1, 60 minutes at 25° C., read-out: IC50 PD-L1-PD-1 Alpha IC50-mono PD-L1-fcP-D1. The method, boiled down:
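Final concentrations 0.3 nM His-tagged PD-L1 and 2.5 nM biotinylated Fc-PD-1 (extracellular domains) were reacted with compound for 60 min at 25° C in pH 7.4 Hepes/NaCl/EDTA/Tween/BSA buffer. Binding was then detected by ALPHA beads, and IC50 values were taken from four-parameter curve fitting.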

T2 sequence (Q9NZQ7 19-290): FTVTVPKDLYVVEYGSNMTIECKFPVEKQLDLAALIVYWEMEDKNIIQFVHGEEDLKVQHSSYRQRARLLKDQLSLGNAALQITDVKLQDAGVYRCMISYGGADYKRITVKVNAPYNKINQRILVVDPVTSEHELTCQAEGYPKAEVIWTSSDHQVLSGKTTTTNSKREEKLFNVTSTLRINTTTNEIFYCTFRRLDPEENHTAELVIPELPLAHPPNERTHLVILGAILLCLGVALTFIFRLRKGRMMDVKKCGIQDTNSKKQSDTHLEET
Chain of PD-1/PD-L1 (Q9NZQ7 19-238 limits assumed): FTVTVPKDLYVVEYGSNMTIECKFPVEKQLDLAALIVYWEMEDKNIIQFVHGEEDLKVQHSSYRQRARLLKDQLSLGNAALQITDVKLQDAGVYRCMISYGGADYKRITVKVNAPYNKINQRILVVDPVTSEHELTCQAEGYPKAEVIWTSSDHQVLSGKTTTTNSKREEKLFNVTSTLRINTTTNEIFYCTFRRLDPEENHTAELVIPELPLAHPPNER
T1 sequence (Q9NZQ7 19-238 limits assumed): as above
T1 sequence (Q9NZQ7 19-238 limits assumed): as above

As for `C[C@@](CO)(NCc1ccc(O[C@H]2CCc3c(-c4cccc5c4CC[C@@H]5Oc4nc(OCc5cncc(C#N)c5)c(CN[C@@](C)(CO)C(=O)O)cc4Cl)cccc32)cc1)C(=O)O` [Example 685], the AC50 in assay [1] worked out at 1820 nM. In assay [2], the EC50 was determined as 625 nM. In addition, the IC50 in assay [3] is 0.552 nM.
Taken in the same sequence, the figures for `COc1nc(-c2cccc(-c3cccc(-c4ccn5cc(CN6CC(O)C6)nc5c4)c3Cl)c2Cl)ccc1CN1CC(O)C1` [Example 616] were 156 nM, not below 50000 nM and 0.295 nM.
Taken in the same sequence, the figures for `C[C@@](CO)(NCc1cc(Br)c(O[C@H]2CCc3c(-c4cccc(-c5ccc(CNC[C@@H]6CCC(=O)N6)cc5)c4Cl)cccc32)nc1OCc1cncc(C#N)c1)C(=O)O` [Example 741] were 3.1 nM, 12 nM and 0.064 nM.
Taken in the same sequence, the figures for `CN1CCCC1c1ccc(-c2cccc(-c3cccc4c3CC[C@@H]4Oc3nc(OCc4cncc(C#N)c4)c(CNCCO)cc3Cl)c2Cl)cc1` (stereo partly drawn) [Example 670] were 74.8 nM, not below 50000 nM and 1.74 nM.
With `CC(C)(NCc1cc(Cl)c(O[C@H]2CCc3c(-c4cccc(-c5ccc(OCCN6CC[C@@H](O)C6)cc5)c4Cl)cccc32)nc1OCc1cncc(C#N)c1)C(=O)O` [Example 667], the AC50 in assay [1] is 17 nM. The EC50 in assay [2] stood at 1890 nM. In addition, the IC50 in assay [3] was 0.064 nM.
For `Cc1c(COc2cc(OCc3cncc(C#N)c3)c(CN[C@@](C)(CO)C(=O)O)cc2Cl)cccc1-c1cccc(-c2ccc(OCCN3CCC4(CC3)CNC(=O)C4)cc2)c1C` [Example 521], the AC50 in assay [1] was 125 nM. The EC50 in assay [2] stood at 106 nM. Moreover, the 50% inhibitory concentration (IC50) in assay [3] stood at 0.064 nM.
Taken in the same sequence, the figures for `C[C@@](CO)(NCc1cc(Cl)c(O[C@H]2CCc3c(-c4cccc(-c5ccc(OCCN6CC[C@@H](O)C6)cc5)c4Cl)cccc32)nc1OCc1cncc(S(C)(=O)=O)c1)C(=O)O` [Example 669] were 17.2 nM, 637 nM and 0.064 nM.
Consider `N#Cc1cncc(COc2cc(O[C@H]3CCc4c(-c5cccc(-c6ccc7sc(CNC[C@@H]8CCC(=O)N8)nc7c6)c5Cl)cccc43)c(Cl)cc2CNC[C@@H]2CCC(=O)N2)c1` [Example 801], for which, in assay [1], the AC50 is not below 10000 nM. Also, the EC50 in assay [2] is not below 50000 nM. Moreover, in assay [3], the IC50 amounted to 9.69 nM.
Taken in the same sequence, the figures for `COc1nc(OCc2cccc(-c3cccc(COc4nc(OC)c(CNC[C@@H](O)CC(=O)O)cc4Br)c3C#N)c2Cl)c(Br)cc1CNC[C@@H](O)CC(=O)O` [Example 562] were 126 nM, 162 nM and 0.102 nM.
Turning to `COc1nc(O[C@H]2CCc3c(-c4cccc(-c5cnc6c(CN7CC8(CNC(=O)C8)C7)cn(C)c6n5)c4Cl)cccc32)c(Cl)cc1CN1CCC[C@@H](C(=O)O)C1` [Example 524], in assay [1], the AC50 is 67.7 nM. Also, the EC50 in assay [2] was determined as 39 nM. Further, the half-inhibitory concentration (IC50) in assay [3] worked out at 0.064 nM.
As to `COc1nc(-c2cccc(-c3cccc(-c4ccn5cc(CN(C)C)nc5c4)c3Cl)c2Cl)ccc1CN(C)C` [Example 617], the AC50 in assay [1] came out at 265 nM. Further, the EC50 in assay [2] is not below 50000 nM. For the same compound, in assay [3], the IC50 worked out at 0.17 nM.
On to `Cc1c(COc2cc(OCc3cncc(C#N)c3)c(CN3CC[C@@H](O)C3)cc2Cl)cccc1-c1cccc(-c2ncc(CN3CC[C@@H](O)C3)cn2)c1C` [Example 454], for which, in assay [1], the AC50 was found to be 943 nM. The EC50 in assay [2] turned out to be 953 nM. The IC50 in assay [3] was found to be 1.01 nM.
Taken in the same sequence, the figures for `COc1cc(-c2cccc(-c3cccc(-c4cnc(C5=NCCN5)c(OC)c4)c3Cl)c2Cl)cnc1C1=NCCN1` [Example 630] were not below 10000 nM, 165 nM and 0.064 nM.
Take `COc1nc(OCc2cccc(-c3cccc(-c4ccc5c(c4)C[C@@H](N)C5)c3Cl)c2Cl)c(Br)cc1CN[C@](C)(CO)C(=O)O` [Example 549]: in assay [1], the AC50 worked out at 54.6 nM. The EC50 in assay [2] was determined as 177 nM. Besides, in assay [3], the IC50 worked out at 0.355 nM.
Taken in the same sequence, the figures for `C[C@@](CO)(NCc1cc(Cl)c(OCc2cccc(-c3cccc(-c4ccc(OCCNCCO)cc4)c3Cl)c2Cl)nc1OCc1cncc(C#N)c1)C(=O)O` [Example 340, (S)-2-(((5-chloro-2-((5-cyanopyridin-3-yl)methoxy)-6-((2,2′-dichloro-4″-(2-((2-hydroxyethyl)amino)ethoxy)-[1,1′:3′,1″-terphenyl]-3-yl)methoxy)pyridin-3-yl)methyl)amino)-3-hydroxy-2-methylpropanoic acid] were 27.8 nM, 217 nM and 0.087 nM.
On to `Cc1c(COc2cc(OCc3cncc(C#N)c3)c(CNC[C@@H](O)CC(=O)O)cc2Cl)cccc1-c1cccc(-c2cc3c(cc2F)C(N(C)C)CC3)c1C` (stereo partly drawn) [Example 372, (3S)-4-((5-chloro-2-((5-cyanopyridin-3-yl)methoxy)-4-((3′-(1-(dimethylamino)-6-fluoro-2,3-dihydro-1H-inden-5-yl)-2,2′-dimethyl-[1,1′-biphenyl]-3-yl)methoxy)benzyl)amino)-3-hydroxybutanoic acid], for which, in assay [1], the AC50 was found to be 425 nM. Further, the EC50 in assay [2] worked out at 860 nM. The half-maximal inhibitory concentration (IC50) in assay [3] was 1.13 nM.
Taken in the same sequence, the figures for `COc1nc(-c2cccc(-c3cccc4c3CC[C@@H]4Oc3nc(OC)c(CN4CC[C@H](C(=O)O)C4)cc3Cl)c2Cl)ccc1CNC[C@H]1C[C@H](O)C1` [Example 712] were 33 nM, 12 nM and 0.064 nM.
Take `Cc1c(-c2ccc(OCCNC[C@@H](O)CC(=O)O)cc2)cccc1-c1cccc2c1CC[C@@H]2Oc1ccc(CNC[C@@H](O)CC(=O)O)c(OCc2cncc(C#N)c2)n1` [Example 677]: in assay [1], the AC50 is 180 nM. In assay [2], the EC50 is 145 nM. Also, in assay [3], the IC50 came to 0.063 nM.
On to `CC(C)(NCc1cc(Cl)c(OCc2cccc(-c3cccc(-c4ccc(OCCNCCO)cc4)c3Cl)c2Cl)nc1OCc1cc(C#N)cc(C#N)c1)C(=O)O` [Example 578], for which the AC50 in assay [1] came out at 37.2 nM. In assay [2], the EC50 turned out to be 135 nM. For the same compound, in assay [3], the IC50 worked out at 0.111 nM.
On to `Cc1c(COc2cc(OCc3cncc(C#N)c3)c(CNC[C@@H](O)CC(=O)O)cc2Cl)cccc1-c1cccc(-c2cn3cc(CNC[C@@H](O)CC(=O)O)ccc3n2)c1C` [Example 394, (S)-4-(((2-(3′-((4-((((S)-3-carboxy-2-hydroxypropyl)amino)methyl)-2-chloro-5-((5-cyanopyridin-3-yl)methoxy)phenoxy)methyl)-2,2′-dimethyl-[1,1′-biphenyl]-3-yl)imidazo[1,2-a]pyridin-6-yl)methyl)amino)-3-hydroxybutanoic acid], for which the AC50 in assay [1] stood at 130 nM. In addition, the EC50 in assay [2] amounted to 435 nM. In addition, the IC50 in assay [3] came to 0.102 nM.
In the case of `Cc1c(COc2cc(OCc3cncc(C#N)c3)c(CN[C@@](C)(CO)C(=O)O)cc2Cl)cccc1-c1cccc(-c2ccc3c(cnn3CCN3CC[C@@H](O)C3)n2)c1C` [Example 475], the half-maximal activity concentration (AC50) in assay [1] is 134 nM. Moreover, the EC50 in assay [2] was found to be 117 nM. For the same compound, the IC50 in assay [3] came out at 0.088 nM.
Consider `COc1nc(-c2cccc(-c3cccc4c3CC[C@@H]4Oc3nc(OCc4cncc(C#N)c4)c(CN[C@@](C)(CO)C(=O)O)cc3Cl)c2Br)ccc1CNC[C@@H]1CCC(=O)N1` [Example 700], for which, in assay [1], the AC50 was determined as 22.1 nM. Besides, in assay [2], the EC50 stood at 43 nM. In addition, the IC50 in assay [3] is 0.064 nM.
Taken in the same sequence, the figures for `N#Cc1cncc(COc2nc(OCc3cccc(-c4cccc(-c5ccc(CNC[C@@H]6CCC(=O)N6)cc5)c4Cl)c3Cl)c(Br)cc2CNC[C@@H]2CCC(=O)N2)c1` [Example 540] were 126 nM, 103 nM and 0.593 nM.
As to `COc1cc(-c2cccc(-c3cccc(-c4ccc(CNC[C@@H]5CCC(=O)N5)c(OC)c4)c3Cl)c2Cl)ccc1CNC[C@@H]1CCC(=O)N1` [Example 513], the AC50 in assay [1] stood at 89.3 nM. Besides, the EC50 in assay [2] worked out at 47 nM. Besides, the IC50 in assay [3] was determined as 0.301 nM.
On to `Cc1c(COc2cc(OCc3cncc(C#N)c3)c(CN[C@@](C)(CO)C(=O)O)cc2Cl)cccc1-c1cccc(-c2ccc(CNC[C@@H]3CCC(=O)N3)cc2)c1C` [Example 575], for which, in assay [1], the AC50 worked out at 40.6 nM. In addition, the EC50 in assay [2] is 34 nM. The IC50 in assay [3] was 0.073 nM.
Taken in the same sequence, the figures for `N#Cc1cncc(COc2nc(O[C@H]3CCc4c(-c5cccc(-c6ccc(OCCNCCO)cc6)c5Cl)cccc43)c(Cl)cc2CNC[C@@H](O)CC(=O)O)c1` [Example 291, (S)-4-(((5-chloro-6-(((S)-4-(2-chloro-4′-(2-((2-hydroxyethyl)amino)ethoxy)-[1,1′-biphenyl]-3-yl)-2,3-dihydro-1H-inden-1-yl)oxy)-2-((5-cyanopyridin-3-yl)methoxy)pyridin-3-yl)methyl)amino)-3-hydroxybutanoic acid] were 27.5 nM, 46 nM and 0.175 nM.
Taken in the same sequence, the figures for `COc1nc(-c2cccc(-c3cccc(-c4ccn5cc(CN6CC7(CCC(=O)N7)C6)nc5c4)c3Cl)c2Cl)ccc1CN1CC2(CCC(=O)N2)C1` [Example 618] were 389 nM, not below 50000 nM and 0.224 nM.

In general, AC50 refers to the concentration giving half of the maximal activity seen. As a reminder, the EC50 is the concentration needed to bring the measured effect to its halfway point. By IC50 is commonly meant the concentration that inhibits the measured activity by half.
